Results on 22 molecules are retold here after patent publication US10053465B2 (Incyte Corporation, priority 2015, dated 2018).

Experiment [1] deals with JAK2 (Homo sapiens (Human), UniProt O60674). To be noted: ratio of IC50 at 1 mM ATP; cited from earlier work.
Experiment [2] deals with Phospho-Axl (Homo sapiens (Human), UniProt P30530). Description: biochemical.
Procedure: Autophosphorylation of Axl was carried out by incubating the recombinant Axl protein (Life Technologies, PV4275) in buffer containing 50 mM Tris, pH7.5, 0.2 mg/ml Axl, 5 mM ATP, 20 mM MgCl2 and 2 mM DTT at room temperature for 1 hour.
(§1) 0.1 ul test compounds dissolved in DMSO were transferred from compound plates to white 384-well assay plates (Greiner [sequence] plates). […] The plate was protected from light and incubated at room temperature for 60 min.
The target of experiment [3] is Tyro3 (Homo sapiens (Human), UniProt Q06418). The experiment in a line: biochemical. Particulars: read-out: Tyro3IC50.
Chain of Tyro3 (Q06418 41-890): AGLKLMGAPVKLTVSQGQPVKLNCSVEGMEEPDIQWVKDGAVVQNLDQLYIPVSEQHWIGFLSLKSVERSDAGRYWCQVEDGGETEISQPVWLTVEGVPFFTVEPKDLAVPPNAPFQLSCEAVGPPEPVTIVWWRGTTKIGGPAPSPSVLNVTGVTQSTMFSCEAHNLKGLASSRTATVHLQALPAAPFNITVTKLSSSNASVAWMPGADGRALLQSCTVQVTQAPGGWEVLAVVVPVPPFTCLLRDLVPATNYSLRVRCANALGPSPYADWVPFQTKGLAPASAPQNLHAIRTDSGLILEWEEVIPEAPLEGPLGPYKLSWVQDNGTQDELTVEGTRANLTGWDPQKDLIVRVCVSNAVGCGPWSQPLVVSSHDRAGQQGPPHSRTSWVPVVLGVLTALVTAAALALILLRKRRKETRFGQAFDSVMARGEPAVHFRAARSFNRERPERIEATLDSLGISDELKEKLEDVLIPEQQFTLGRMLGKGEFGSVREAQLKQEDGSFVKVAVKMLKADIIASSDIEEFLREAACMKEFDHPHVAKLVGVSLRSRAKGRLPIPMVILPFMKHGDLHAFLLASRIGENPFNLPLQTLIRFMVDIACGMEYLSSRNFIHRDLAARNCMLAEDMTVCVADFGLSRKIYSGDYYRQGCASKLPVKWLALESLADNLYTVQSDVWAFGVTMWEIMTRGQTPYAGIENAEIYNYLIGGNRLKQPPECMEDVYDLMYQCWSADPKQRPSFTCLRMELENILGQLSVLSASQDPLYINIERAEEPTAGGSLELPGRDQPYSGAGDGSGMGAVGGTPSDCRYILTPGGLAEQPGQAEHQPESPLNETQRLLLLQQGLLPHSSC
Procedure: as §1
For experiment [4], the target named is T1, c-Mer (Homo sapiens (Human), UniProt Q12866). Description: biochemical.
T1 sequence (Q12866 21-999): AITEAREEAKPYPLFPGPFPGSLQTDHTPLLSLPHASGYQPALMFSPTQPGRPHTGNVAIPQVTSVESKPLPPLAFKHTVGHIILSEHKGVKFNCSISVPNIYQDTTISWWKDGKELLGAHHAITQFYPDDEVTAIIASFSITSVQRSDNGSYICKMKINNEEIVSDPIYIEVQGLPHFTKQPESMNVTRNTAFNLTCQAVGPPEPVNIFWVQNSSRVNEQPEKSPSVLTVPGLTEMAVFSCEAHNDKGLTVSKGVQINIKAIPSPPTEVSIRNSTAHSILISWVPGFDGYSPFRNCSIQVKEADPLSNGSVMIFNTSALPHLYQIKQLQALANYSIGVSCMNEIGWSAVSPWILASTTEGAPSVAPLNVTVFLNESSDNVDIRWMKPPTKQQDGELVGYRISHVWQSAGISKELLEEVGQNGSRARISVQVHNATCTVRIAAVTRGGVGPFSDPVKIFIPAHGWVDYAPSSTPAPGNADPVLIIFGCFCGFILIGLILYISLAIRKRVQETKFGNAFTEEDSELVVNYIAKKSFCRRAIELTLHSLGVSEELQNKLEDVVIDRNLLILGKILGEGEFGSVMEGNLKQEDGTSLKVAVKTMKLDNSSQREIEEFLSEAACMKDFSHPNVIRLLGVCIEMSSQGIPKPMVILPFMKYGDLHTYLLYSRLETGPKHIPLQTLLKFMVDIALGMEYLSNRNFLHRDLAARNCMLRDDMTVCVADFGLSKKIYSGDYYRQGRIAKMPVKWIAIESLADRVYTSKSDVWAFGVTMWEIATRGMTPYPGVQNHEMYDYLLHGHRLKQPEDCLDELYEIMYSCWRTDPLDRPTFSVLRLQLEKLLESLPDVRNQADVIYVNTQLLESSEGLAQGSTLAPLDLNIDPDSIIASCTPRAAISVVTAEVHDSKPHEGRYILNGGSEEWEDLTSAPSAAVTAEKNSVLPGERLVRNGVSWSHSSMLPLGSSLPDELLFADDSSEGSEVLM
Procedure: as §1
Experiment [5] has as its target T1, c-Mer. To be noted: read-out: c-Mer IC50; HTRF, 60 min room temperature.
Procedure: as §1
Experiment [6] has as its system NK cells. To be noted: Paolino et al., 2014; cited from earlier work.
Experiment [7] relates to tumor models with different histologies. Particulars: Paolino et al., 2014; cited from earlier work.

Where two headings read alike, the source gives them in different places.

Chain of Phospho-Axl (P30530 26-894): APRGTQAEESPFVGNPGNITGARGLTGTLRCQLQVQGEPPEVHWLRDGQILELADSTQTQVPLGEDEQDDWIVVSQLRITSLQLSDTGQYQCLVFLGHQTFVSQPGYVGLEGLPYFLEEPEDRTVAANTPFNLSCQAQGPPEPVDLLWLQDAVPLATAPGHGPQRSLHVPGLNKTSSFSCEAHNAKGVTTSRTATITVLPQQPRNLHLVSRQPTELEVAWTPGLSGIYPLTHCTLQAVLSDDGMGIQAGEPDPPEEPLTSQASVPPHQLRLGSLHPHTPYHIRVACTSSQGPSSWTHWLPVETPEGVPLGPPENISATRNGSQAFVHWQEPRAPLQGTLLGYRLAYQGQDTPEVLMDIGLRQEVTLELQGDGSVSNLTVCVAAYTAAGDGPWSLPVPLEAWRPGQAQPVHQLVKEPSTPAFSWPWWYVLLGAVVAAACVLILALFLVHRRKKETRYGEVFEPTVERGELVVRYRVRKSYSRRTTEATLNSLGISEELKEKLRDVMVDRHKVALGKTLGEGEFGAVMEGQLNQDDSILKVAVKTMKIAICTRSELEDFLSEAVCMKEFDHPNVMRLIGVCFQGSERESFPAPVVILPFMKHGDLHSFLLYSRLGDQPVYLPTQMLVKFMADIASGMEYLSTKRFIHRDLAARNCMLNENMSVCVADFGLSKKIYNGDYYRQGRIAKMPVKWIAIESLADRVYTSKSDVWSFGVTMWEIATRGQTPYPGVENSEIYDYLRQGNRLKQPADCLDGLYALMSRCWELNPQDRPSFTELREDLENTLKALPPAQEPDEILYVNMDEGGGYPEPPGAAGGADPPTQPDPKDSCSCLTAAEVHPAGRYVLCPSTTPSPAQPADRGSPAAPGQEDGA
Chain of JAK2 (O60674 whole entry, species assumed): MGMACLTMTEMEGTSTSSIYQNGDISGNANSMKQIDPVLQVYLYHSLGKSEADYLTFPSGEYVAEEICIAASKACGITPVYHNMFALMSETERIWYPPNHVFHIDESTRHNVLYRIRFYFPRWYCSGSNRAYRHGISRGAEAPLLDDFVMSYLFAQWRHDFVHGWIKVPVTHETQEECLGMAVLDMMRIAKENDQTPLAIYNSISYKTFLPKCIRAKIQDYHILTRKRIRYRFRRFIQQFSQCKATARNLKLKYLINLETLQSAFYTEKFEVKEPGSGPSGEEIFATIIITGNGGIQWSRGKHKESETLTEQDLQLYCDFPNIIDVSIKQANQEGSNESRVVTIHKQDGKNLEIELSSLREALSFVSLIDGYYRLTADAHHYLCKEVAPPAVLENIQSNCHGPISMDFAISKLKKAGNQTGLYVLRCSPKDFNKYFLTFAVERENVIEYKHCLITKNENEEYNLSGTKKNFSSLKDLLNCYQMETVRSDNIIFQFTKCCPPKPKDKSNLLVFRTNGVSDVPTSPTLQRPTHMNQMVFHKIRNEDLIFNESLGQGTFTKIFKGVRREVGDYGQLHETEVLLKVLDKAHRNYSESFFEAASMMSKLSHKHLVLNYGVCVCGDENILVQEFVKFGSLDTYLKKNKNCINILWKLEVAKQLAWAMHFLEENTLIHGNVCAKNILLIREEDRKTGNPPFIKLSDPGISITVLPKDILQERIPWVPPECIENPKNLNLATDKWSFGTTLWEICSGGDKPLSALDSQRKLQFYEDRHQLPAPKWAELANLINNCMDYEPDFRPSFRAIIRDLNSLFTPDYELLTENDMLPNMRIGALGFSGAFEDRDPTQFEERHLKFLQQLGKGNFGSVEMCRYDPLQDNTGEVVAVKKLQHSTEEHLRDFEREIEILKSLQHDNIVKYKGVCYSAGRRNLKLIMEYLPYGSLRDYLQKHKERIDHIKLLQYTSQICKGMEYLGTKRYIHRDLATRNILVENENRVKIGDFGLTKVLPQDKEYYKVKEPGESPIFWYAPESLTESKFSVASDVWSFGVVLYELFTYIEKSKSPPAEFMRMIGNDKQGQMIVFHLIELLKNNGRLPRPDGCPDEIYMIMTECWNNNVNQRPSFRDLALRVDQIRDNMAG

As to `N#CCC1(n2cc(-c3ncnc4[nH]ccc34)cn2)CN(C2CCN(C(=O)c3ccnc(C(F)(F)F)n3)CC2)C1` [Compound 9, [3-[4-(7H-pyrrolo[2,3-d]pyrimidin-4-yl)-1H-pyrazol-1-yl]-1-(1-{[2-(trifluoromethyl)pyrimidin-4-yl]carbonyl}piperidin-4-yl)azetidin-3-yl]acetonitrile], the JAK2/JAK1 in experiment [1] is above 10.
As for `Cn1ccc(C(=O)NCC2(c3cccc(-c4ncnc5[nH]ccc45)c3)Cc3ccccc3C2)n1` [Example 29], the IC50 was 1000 to 3000 nM in experiment [2] (HTRF, 60 min room temperature); above 3000 nM in experiment [3] (HTRF, 60 min room temperature); 1000 to 3000 nM in experiment [4].
Consider `Cc1ncoc1C(=O)NCC1(c2cccc(-c3ncnc4[nH]ccc34)c2)Cc2ccccc2C1` [Example 30], for which the IC50 in experiment [2] (HTRF, 60 min room temperature) is 500 to 1000 nM; in experiment [3] (HTRF, 60 min room temperature) it was above 3000 nM; in experiment [4], 500 to 1000 nM.
With `Cn1nccc1C(=O)NCC1(c2cccc(-c3ncnc4[nH]ccc34)c2)Cc2ccccc2C1` [Example 32, 1-Methyl-N-({2-[3-(7H-pyrrolo[2,3-d]pyrimidin-4-yl)phenyl]-2,3-dihydro-1H-inden-2-yl}methyl)-1H-pyrazole-5-carboxamide], the IC50 in experiment [2] (HTRF, 60 min room temperature) is above 3000 nM; in experiment [3], above 3000 nM; in experiment [5], above 3000 nM.
Consider `NCC1(c2cccc(-c3ncnc4[nH]ccc34)c2)Cc2ccc(CN3CC(O)C3)cc2C1` (stereo not shown) [Example 48, 1-((2-(3-(7H-Pyrrolo[2,3-d]pyrimidin-4-yl)phenyl)-2-(aminomethyl)-2,3-dihydro-1H-inden-5-yl)methyl)azetidin-3-ol], for which the IC50 was above 3000 nM in experiment [2] (HTRF, 60 min room temperature); 1000 to 3000 nM in experiment [3] (HTRF, 60 min room temperature); above 3000 nM in experiment [5].
On to `N#Cc1ccc2c(c1)CC(CN)(c1cccc(-c3ncnc4[nH]ccc34)c1)C2` (stereo not shown) [Example 49, 2-(Aminomethyl)-2-[3-(7H-pyrrolo[2,3-d]pyrimidin-4-yl)phenyl]indane-5-carbonitrile], for which the IC50 is below 500 nM in experiment [2] (HTRF, 60 min room temperature); 1000 to 3000 nM in experiment [3] (HTRF, 60 min room temperature); below 500 nM in experiment [5].
As for `NCC1(c2cccc(-c3ncnc4[nH]ccc34)c2)Cc2ccc(N3CC(F)C3)cc2C1` (stereo not shown) [Example 56, 1-{5-(3-Fluoroazetidin-1-yl)-2-[3-(7H-pyrrolo[2,3-d]pyrimidin-4-yl)phenyl]-2,3-dihydro-1H-inden-2-yl}methanamine], the IC50 in experiment [2] (HTRF, 60 min room temperature) is below 500 nM; in experiment [3] (HTRF, 60 min room temperature), 1000 to 3000 nM; in experiment [5], below 500 nM.
For the molecule `CCn1cnc(-c2ccc3c(c2)CC(CN)(c2cccc(-c4ncnc5[nH]ccc45)c2)C3)c1` (stereo not shown) [Example 76, 1-{5-(1-Ethyl-1H-imidazol-4-yl)-2-[3-(7H-pyrrolo[2,3-d]pyrimidin-4-yl)phenyl]-2,3-dihydro-1H-inden-2-yl}methanamine], the IC50 in experiment [2] is below 500 nM; in experiment [3] (HTRF, 60 min room temperature) it was 500 to 1000 nM; in experiment [5], below 500 nM.
Turning to `CCCCNc1nc(-c2cccc(C3(CN)Cc4ccccc4C3)c2)c2cc[nH]c2n1` [Example 80, 4-{3-[2-(Aminomethyl)-2,3-dihydro-1H-inden-2-yl]phenyl}-N-butyl-7H-pyrrolo[2,3-d]pyrimidin-2-amine], the IC50 in experiment [2] (HTRF, 60 min room temperature) is below 500 nM; in experiment [3], below 500 nM; in experiment [5], below 500 nM.
For `CNc1nc(-c2cccc(C3(CN)Cc4ccccc4C3)c2)c2cc[nH]c2n1` [Example 86, 4-{3-[2-(Aminomethyl)-2,3-dihydro-1H-inden-2-yl]phenyl}-N-methyl-7H-pyrrolo[2,3-d]pyrimidin-2-amine], the IC50 in experiment [2] (HTRF, 60 min room temperature) was below 500 nM; in experiment [3] (HTRF, 60 min room temperature) it was 1000 to 3000 nM; in experiment [5], below 500 nM.
For `CCNc1nc(-c2cccc(C3(CN)Cc4ccccc4C3)c2)c2cc[nH]c2n1` [Example 87, 4-{3-[2-(Aminomethyl)-2,3-dihydro-1H-inden-2-yl]phenyl}-N-ethyl-7H-pyrrolo[2,3-d]pyrimidin-2-amine], the IC50 in experiment [2] (HTRF, 60 min room temperature) was below 500 nM; in experiment [3] (HTRF, 60 min room temperature), 1000 to 3000 nM; in experiment [5] it was below 500 nM.
Take `CC(C)Nc1nc(-c2cccc(C3(CN)Cc4ccccc4C3)c2)c2cc[nH]c2n1` [Example 88, 4-{3-[2-(Aminomethyl)-2,3-dihydro-1H-inden-2-yl]phenyl}-N-isopropyl-7H-pyrrolo[2,3-d]pyrimidin-2-amine]: the IC50 in experiment [2] (HTRF, 60 min room temperature) is below 500 nM; in experiment [3], above 3000 nM; in experiment [5] it was below 500 nM.
Regarding `NCC1(c2cccc(-c3nc(NC4CCC4)nc4[nH]ccc34)c2)Cc2ccccc2C1` [Example 89, 4-{3-[2-(Aminomethyl)-2,3-dihydro-1H-inden-2-yl]phenyl}-N-cyclobutyl-7H-pyrrolo[2,3-d]pyrimidin-2-amine], the IC50 in experiment [2] (HTRF, 60 min room temperature) is below 500 nM; in experiment [3], below 500 nM; in experiment [5], below 500 nM.
With `NCC1(c2cccc(-c3nc(NC4CCCC4)nc4[nH]ccc34)c2)Cc2ccccc2C1` [Example 90, 4-{3-[2-(Aminomethyl)-2,3-dihydro-1H-inden-2-yl]phenyl}-N-cyclopentyl-7H-pyrrolo[2,3-d]pyrimidin-2-amine], the IC50 in experiment [2] (HTRF, 60 min room temperature) is below 500 nM; in experiment [3] (HTRF, 60 min room temperature) it was 500 to 1000 nM; in experiment [5] it was below 500 nM.
For `NCC1(c2cccc(-c3nc(NC4CCCCC4)nc4[nH]ccc34)c2)Cc2ccccc2C1` [Example 91, 4-{3-[2-(Aminomethyl)-2,3-dihydro-1H-inden-2-yl]phenyl}-N-cyclohexyl-7H-pyrrolo[2,3-d]pyrimidin-2-amine], the IC50 in experiment [2] (HTRF, 60 min room temperature) was below 500 nM; in experiment [3] (HTRF, 60 min room temperature), 1000 to 3000 nM; in experiment [5], below 500 nM.
Take `Cn1cc(Nc2nc(-c3ccnc(C4(CN)Cc5ccccc5C4)c3)c3cc[nH]c3n2)cn1` [Example 94, 4-{2-[2-(Aminomethyl)-2,3-dihydro-1H-inden-2-yl]pyridin-4-yl}-N-(1-methyl-1H-pyrazol-4-yl)-7H-pyrrolo[2,3-d]pyrimidin-2-amine]: the IC50 is below 500 nM in experiment [2] (HTRF, 60 min room temperature); below 500 nM in experiment [3]; below 500 nM in experiment [5].
For `NCC1(c2cc(-c3nc(Nc4cccc(CN5CCOCC5)c4)nc4[nH]ccc34)ccn2)Cc2ccccc2C1` [Example 95, 4-{2-[2-(Aminomethyl)-2,3-dihydro-1H-inden-2-yl]pyridin-4-yl}-N-[3-(morpholin-4-ylmethyl)phenyl]-7H-pyrrolo[2,3-d]pyrimidin-2-amine], the IC50 was below 500 nM in experiment [2] (HTRF, 60 min room temperature); below 500 nM in experiment [3]; below 500 nM in experiment [5].
On to `COc1cnc2[nH]ccc2c1-c1ccnc(C2(CN)Cc3ccccc3C2)c1` [Example 96, 1-{2-[4-(5-Methoxy-1H-pyrrolo[2,3-b]pyridin-4-yl)pyridin-2-yl]-2,3-dihydro-1H-inden-2-yl}methanamine], for which the IC50 in experiment [2], in experiment [3] and in experiment [5] was below 500 nM each time.
`NCC1(c2cc(-c3ccnc4[nH]ncc34)ccn2)Cc2ccccc2C1` [Example 97, 1-{2-[4-(1H-Pyrazolo[3,4-b]pyridin-4-yl)pyridin-2-yl]-2,3-dihydro-1H-inden-2-yl}methanamine]: the IC50 was below 500 nM in experiment [2] (HTRF, 60 min room temperature); 1000 to 3000 nM in experiment [3] (HTRF, 60 min room temperature); below 500 nM in experiment [4].
As for `NCC1(c2cccc(-c3ncnc4[nH]ccc34)c2)CCc2ccccc2C1` (stereo not shown) [Example 99, 1-{2-[3-(7H-Pyrrolo[2,3-d]pyrimidin-4-yl)phenyl]-1,2,3,4-tetrahydronaphthalen-2-yl}methanamine], the IC50 in experiment [2] and in experiment [5] was below 500 nM throughout.
Consider `NCC1(n2cc(-c3ncnc4[nH]ccc34)ccc2=O)Cc2ccccc2C1` [Example 100, 1-[2-(Aminomethyl)-2,3-dihydro-1H-inden-2-yl]-5-(7H-pyrrolo[2,3-d]pyrimidin-4-yl)pyridin-2(1H)-one], for which the IC50 was below 500 nM in experiment [2] (HTRF, 60 min room temperature) and below 500 nM in experiment [5].
Consider `CCOc1cn(-c2ccc(F)cc2C)nc1C(=O)Nc1ccc(Oc2ccnc3cc(OC)c(OC)cc23)c(F)c1` [LDC1267], for which the NK cell activation entry in experiment [6] is reported as “activates NK cells”. For the same molecule, the “metastasis in tumor models” value in experiment [7] was “blocks metastasis in tumor models with different histologies”.
